Square brackets hold non-standard residues; d marks the D form. Peptide text beside a SMILES is read from it. Hpg = N[C@H](C(=O)O)c1ccc(O)cc1
Columns and labels:
[1] = test system: diaphragm tissue from fat-fed rats; assay: Pyruvate oxidation by diaphragm tissue from fat-fed rats in vitro (14C from labelled pyruvate into CO2); design: species or system rat; conditions: diaphragm tissue from rats fed on a high fat diet
Description: Representative compounds of the formula (II) have been tested for their ability to increase the oxidation of glucose and/or pyruvate as follows:
Diaphragm tissue is obtained from rats fed on a high fat diet similar to `Diet B` described by Zaragoza and Felber [Horm.Metab. Res., 2, 323 (1970)]. Pyruvate oxidation by such tissue is assessed by measurement of the rate of incorporation of carbon-14 from carbon-14-labelled pyruvate into carbon dioxide in vitro, as described by Bringolf [Eur. J. Biochem., 26, 360 (1972)]. The rate of pyruvate oxidation is depressed by 50%-75% compared with that by diaphragm tissue from rats fed on a normal diet. When the compounds of the formula (II) are added to the medium, they are found to stimulate pyruvate oxidation by diaphragm tissue from fat-fed rats in a dose dependent manner.

[2] = test system: pyruvate dehydrogenase enzyme; assay: Proportion of active form of pyruvate dehydrogenase (PDHa/PDHt) in hearts of fat-fed rats after treatment; type: in vivo; conditions: fat-fed rat heart, after 11/2 hours
Description: The ability of compounds of formula (II) to increase the proportion of the active form of the pyruvate dehydrogenase enzyme has been measured in the following test:
Rats fed on a high fat diet as in the previous test, are treated either with placebo or with the compound of formula (II) by subcutaneous or intravenous injection or by oral administration. After 11/2 hours the rat hearts are removed and homogenized under conditions which minimize changes in the proportion of the pyruvate dehydrogenase enzyme (PDHt) which is present in the active form, as described by Whitehouse and Randle [Biochem. J., 134, 651 (1973)]. The total amount of the enzyme present (PDHt) and the amount which is present in the active form (PDHa) are assessed by a method similar to that described by Taylor et al. [J. Biol. Chem., 248, 73 (1973)]. The fat-feeding process is found to depress the ratio PDHa/PDHt from a normal value of about 0.7 to a value in the range from 0.05 to 0.2. Treatment of fat-fed rats with the compounds of formula (II) either parenterally or orally, increases this ratio in a dose-dependent manner.

| SMILES | % Stimulation (pyruvate oxidation) ([1]; Concentration 2 mM) [%] | PDHa/PDHt ratio, compound ([2]; Dose 0.6 mmoles/kg p.o.) | PDHa/PDHt ratio, compound ([2]; Dose 0.6 mmoles/kg s.c.) | % Stimulation (pyruvate oxidation) ([1]; Concentration 0.25 mM) [%] | PDHa/PDHt ratio, compound ([2]; Dose 1.2 mmoles/kg p.o.) | PDHa/PDHt ratio, compound ([2]; Dose 1.2 mmoles/kg s.c.) |
| --- | --- | --- | --- | --- | --- | --- |
| Br.CC[C@H](C)[C@H](N)C(=O)N[C@H](C(=O)O)c1ccc(O)cc1 [Example 10, L,L-N-isoleucyl-2-(4-hydroxyphenyl)glycine hydrobromide] (H-Ile-[Hpg]-OH) | 10 | 0.72 | 0.86 |  |  |  |
| Br.COC(=O)[C@@H](NC(=O)[C@@H](N)c1ccc(O)cc1)c1ccc(O)cc1 [Example 1, L,L-Methyl N-[2-(4-hydroxyphenyl)glycyl]-2-(4-hydroxyphenyl)glycinate hydrobromide] (H-[Hpg]-[Hpg]-OMe) |  |  |  | 23 | 1.00 |  |
| Br.Br.N[C@H](C(=O)N[C@H](C(=O)O)c1ccc(O)cc1)c1ccc(O)cc1.N[C@H](C(=O)N[C@H](C(=O)O)c1ccc(O)cc1)c1ccc(O)cc1.O [Example 3, L,L-N-[2-(4-hydroxyphenyl)glycyl]-2-(4-hydroxyphenyl)glycine hydrobromide hemihydrate] (H-[Hpg]-[Hpg]-OH) |  |  |  | 39 | 0.75 |  |
| Br.COC(=O)[C@@H](NC(=O)[C@H](C)N)c1ccc(O)cc1 [Example 7, L,L-Methyl N-alanyl-2-(4-hydroxyphenyl)glycinate hydrobromide] (H-Ala-[Hpg]-OMe) | 61 |  |  |  |  |  |
| Br.CC[C@H](C)[C@H](N)C(=O)N[C@H](C(=O)OC)c1ccc(O)cc1.O [Example 9, L,L-Methyl N-isoleucyl-2-(4-hydroxyphenyl)glycinate hydrobromide monohydrate] (H-Ile-[Hpg]-OMe) | 35 |  |  |  | 0.24 | 0.48 |
| Br.C[C@H](N)C(=O)N[C@H](C(=O)O)c1ccc(O)cc1 [Example 8, L,L-N-Alanyl-2-(4-hydroxyphenyl)glycine hydrobromide] (H-Ala-[Hpg]-OH) | 23 | 0.56 | 0.77 |  |  |  |

— US4299820A, “Therapeutic process employing amides of L and DL phenylglycines” (Pfizer Inc., priority 1977, dated 1981)
